Reference: patent EP3315495A1, “N,N' -[…], N,N' -DIAR[…] N,N' -DIARY[…] FOR USE IN TREATMENT AND PREVENTION OF INFLAMMATORY DISEASE” (Universität Innsbruck, priority 2016, dated 2018)
“Also recorded” adds a separate entry of the source. Marks after values point to notes of the source that are not given here.

What was measured:
[1] = tested on: 5-LOX product formation in PMNL; experiment: 5-LOX product formation in PMNL stimulated with A23187 (cell-based); design: species or system human; conditions: for Effect on 5-LOX product formation in PMNL: result in words; for inhibition at 1 µM: read-out: Effect on 5-LOX product formation in PMNL, % inhibition
Method: Briefly, first a cell-based assay allows to determine the inhibition of the 5-LOX product biosynthesis. The cell suspension contained human neutrophils (PMNL) or monocytes, wherein the cells were isolated from buffy coats obtained from healthy donors pooled by gender. An aliquot cell suspension was incubated with the candidate compound for 15 min at 37 °C. The cells are treated with calcium ionophore A23187 to stimulate 5-LOX product formation for further 10 min (37 °C), optionally in presence of various concentrations of AA. The reaction was stopped with 1 mL methanol on ice.
In both assays, product quantification was conducted with RP-HPLC and UV detection after solid phase extraction and addition of 200 ng prostaglandin B1 as internal standard.

FLAP = target: T1, FLAP (Homo sapiens, UniProt P20292); conditions: active = inhibition of product formation in cells without 5-LOX activity in the cell-free assay
T1 sequence (P20292 1-161): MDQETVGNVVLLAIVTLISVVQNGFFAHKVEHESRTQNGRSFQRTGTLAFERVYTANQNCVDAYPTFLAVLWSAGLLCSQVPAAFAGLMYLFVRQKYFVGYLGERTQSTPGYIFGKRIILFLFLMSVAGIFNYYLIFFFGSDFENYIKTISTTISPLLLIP
Method: The enzyme was preincubated for 15 min with the potential inhibitor on ice and subsequently exposed to 2 mM CaCl2 and 20 µM AA for 10 min at 37°C.
Effect on 5-LOX product formation and sEH activity is determined as described above. In case of observed effect on 5-LOX product formation in the cellular assay, 5-LOX activity was investigated with isolated 5-LOX.

sEH [2] = target: T2, sEH (Homo sapiens, UniProt P34913); conditions: result in words
T2 sequence (P34913 1-555): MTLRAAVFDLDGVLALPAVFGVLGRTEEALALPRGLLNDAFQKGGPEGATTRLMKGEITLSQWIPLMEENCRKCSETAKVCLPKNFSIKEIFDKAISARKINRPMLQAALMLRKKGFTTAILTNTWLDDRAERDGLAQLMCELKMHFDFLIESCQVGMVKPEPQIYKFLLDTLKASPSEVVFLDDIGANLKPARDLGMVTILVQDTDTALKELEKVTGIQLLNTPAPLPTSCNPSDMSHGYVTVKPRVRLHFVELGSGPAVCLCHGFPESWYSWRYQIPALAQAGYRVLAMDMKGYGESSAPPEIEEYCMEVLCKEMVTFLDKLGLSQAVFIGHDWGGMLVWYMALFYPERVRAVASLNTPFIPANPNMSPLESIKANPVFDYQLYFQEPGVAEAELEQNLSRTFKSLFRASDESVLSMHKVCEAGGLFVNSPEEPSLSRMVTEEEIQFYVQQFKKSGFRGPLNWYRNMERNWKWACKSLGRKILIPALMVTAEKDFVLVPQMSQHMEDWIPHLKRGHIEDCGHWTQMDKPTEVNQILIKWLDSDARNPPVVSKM
Method: (§1) In brief, sEH was expressed in transfected Sf9-cells. Isolation of sEH from the cell pellet was conducted with a benzylthiosepharose matrix. […] The reaction was stopped with ZnSO4 (0.2 M) after 60 min incubation. […] Inhibitors were tested for self fluorescence. Positive controls were AUDA (12-(3-adamantan-1-yl-ureido)dodecanacid) and DCU (N,N'-dicyclohexylurea) at 10 µM.

sEH [3] = target: T2, sEH; experiment: biochemical; conditions: for inhibition at 0.1 µM / inhibition at 1 µM: read-out: Effect on sEH activity, % inhibition
Method: as §1

[4] = tested on: leukotriene mediated peritonitis; experiment: Zymosan-induced peritonitis model in mice; type: in vivo, CD1 male mice; conditions: intraperitoneal, 30 min prior to zymosan
Method: Compound I-12 was evaluated in vivo in a peritonitis model in mice. The experimental protocols were approved by the Animal Care Committee of the University of Naples Federico II, in compliance with Italian regulations on protection of animals used for experimental and other scientific purpose (Ministerial Decree 116/92) as well as with the European Economic Community regulations (Official Journal of E.C. L 358/1 12/18/1986); protocol number: 2014/0018760 27th February 2014. CD1 male mice with an age of six to eight weeks were investigated. The leukotriene mediated peritonitis is induced by injection of 1 mg zymosan in 50 µl saline solution. 30 min prior to induction, the candidate compound was applied as intraperitoneal injection in different concentrations as well as DMSO as negative control and positive controls (MK886, zileuton). Results are given in Table 3, wherein […] and LTB 4 levels are measured as well as vascular permeability (VP) and the cell recruitment in the peritoneal cavity (Cell Rec). Table 3: Results from an in vivo study with a mouse peritonitis model
In Table 3, values in percent indicate the percent inhibition in respect to the vehicle control. Statistical significance is determined via ANOVA Bonferroni, wherein * indicates p<0.05; ** indicates p<0.01; *** indicates p<0.001 vs. vehicle. N indicates the number of investigated mice.

Question: Which “Effect on 5-LOX product formation in PMNL” value (“Effect … in PMNL” below) [1] does the source give for `CCn1c(COc2ccc3ccccc3c2)nc2ccccc21` [Compound I12-1, reference compound] here?
Answer: inactive

Question: What about the “Effect on FLAP activity” value (FLAP) of the same molecule?
Answer: inactive

Question: What about the “Effect on sEH activity” value (sEH [2]) of the same molecule?
Answer: inactive

Question: How did the “Effect … in PMNL” value [1] turn out when `CSc1ccc(N/N=C/c2nc3ccccc3s2)cc1` [Compound I12-9, reference compound] was run?
Answer: inactive

Question: What about the “Effect on FLAP activity” value (FLAP) of the same molecule?
Answer: inactive

Question: And the “Effect on sEH activity” value (sEH [2])?
Answer: inactive

Question: How did the “Effect … in PMNL” value [1] turn out when `CCNC(=O)Nc1ccc(OCc2nc3ccccc3s2)cc1C` [Compound I12-7, reference compound] was run?
Answer: inactive

Question: And the “Effect on FLAP activity” value (FLAP)?
Answer: inactive

Question: What about the “Effect on sEH activity” value (sEH [2]) of the same molecule?
Answer: inactive

Question: What does the source list for `O=C(Nc1ccccc1)Nc1ccc(CCc2nc3ccccc3[nH]2)cc1` [Compound L3]?
Answer: Effect on 5-LOX product formation in PMNL [1]: inactive; Effect on FLAP activity (FLAP): inactive; inhibition at 0.1 µM (sEH [3]): 30%

Question: Which results are given for `Cc1cccc(NC(=O)Nc2ccc(OCc3nc4ccccc4s3)cc2C)c1` [Compound I12-3]?
Answer: inhibition at 1 µM ([1]; Homo sapiens, PMNL): 100%; Effect on FLAP activity (FLAP): active; inhibition at 0.1 µM (sEH [3]): 55%

Question: Which “Cell Rec (cell recruitment in the peritoneal cavity)” value ([4]; 1 mg) does the source give for `CC(C)c1ccc2c(c1)c(SC(C)(C)C)c(CC(C)(C)C(=O)O)n2Cc1ccc(Cl)cc1` [MK886, reference compound] here?
Answer: 4.54±0.326 10^6/ml

Question: What about the “Cell Rec, percent inhibition in respect to the vehicle control” value ([4]; 1 mg) of the same molecule?
Answer: 41%***

Question: What about the LTB4 ([4]; 1 mg) of the same molecule?
Answer: 258 ± 48 pg/mL

Question: And the “LTB4, percent inhibition in respect to the vehicle control” value ([4]; 1 mg)?
Answer: 63%**

Question: What about the LTC4 ([4]; 1 mg) of the same molecule?
Answer: 24.2 ± 2.98 ng/mL

Question: And the “LTC4, percent inhibition in respect to the vehicle control” value ([4]; 1 mg)?
Answer: 73%***

Question: What about the “VP (vascular permeability)” value ([4]; 3 mg) of the same molecule?
Answer: 0.303±0.018 abs 610 nm

Question: And the “VP, percent inhibition in respect to the vehicle control” value ([4]; 3 mg)?
Answer: 51%

Question: With `O=C(Nc1ccc(F)cc1)Nc1ccc(CCc2nc3ccccc3[nH]2)cc1` [Compound L6] as the molecule, how does the “Effect … in PMNL” value [1] read?
Answer: inactive

Question: What about the “Effect on FLAP activity” value (FLAP) of the same molecule?
Answer: inactive

Question: What about the inhibition at 0.1 µM (sEH [3]) of the same molecule?
Answer: 55%

Question: For `CC(c1cc2ccccc2s1)N(O)C(N)=O` (stereo not drawn) [ZIL, zileuton, reference compound], which LTC4 ([4]; 10 mg) is on record?
Answer: 56.5 ± 4.58 ng/mL

Question: What about the “LTC4, percent inhibition in respect to the vehicle control” value ([4]; 10 mg) of the same molecule?
Answer: 36%*

Question: And the “VP (vascular permeability)” value ([4]; 10 mg)?
Answer: 0.639±0.104 abs 610 nm

Question: How did the “Effect … in PMNL” value [1] turn out when `O=C(Nc1ccc(CCc2nc3ccccc3[nH]2)cc1)Nc1cccc(Cl)c1` [Compound L2] was run?
Answer: inactive

Question: And the “Effect on FLAP activity” value (FLAP)?
Answer: inactive

Question: And the inhibition at 0.1 µM (sEH [3])?
Answer: 50%

Question: Which results are given for `Cc1cc(OCc2nc3ccccc3s2)ccc1NC(=O)COc1ccc(Cl)cc1Cl` [Compound I12-6, reference compound]?
Answer: Effect on 5-LOX product formation in PMNL [1]: inactive; Effect on FLAP activity (FLAP): inactive; Effect on sEH activity (sEH [2]): inactive

Question: How did the “Effect … in PMNL” value [1] turn out when `Cc1cc(OCc2nc3ccccc3s2)ccc1NC(=O)c1ccc(Cl)cc1` [Compound I12-12, reference compound] was run?
Answer: inactive

Question: And the “Effect on FLAP activity” value (FLAP)?
Answer: inactive

Question: What about the “Effect on sEH activity” value (sEH [2]) of the same molecule?
Answer: inactive

Question: What does the source list for `O=C(Nc1ccc(OCc2nc3ccccc3o2)cc1)Nc1ccc(Cl)c(Cl)c1` [TS04]?
Answer: Effect on 5-LOX product formation in PMNL [1]: inactive; Effect on FLAP activity (FLAP): inactive; inhibition at 1 µM (sEH [3]): ~96%

Question: How did the “Effect … in PMNL” value [1] turn out when `CC(C)c1ccc(OCc2nc3ccccc3[nH]2)cc1` [Compound I12-10, reference compound] was run?
Answer: inactive

Question: And the “Effect on FLAP activity” value (FLAP)?
Answer: inactive

Question: What about the “Effect on sEH activity” value (sEH [2]) of the same molecule?
Answer: inactive

Question: What does the source list for `Cc1cc(OCc2nc3ccccc3[nH]2)ccc1NC(=O)Nc1ccc(Cl)c(Cl)c1` [EZ14, N-[4-(1H-Benzimidazol-2-ylmethoxy)-2-methylphenyl]-N'-(3,4-dichlorophenyl)-urea]?
Answer: IC50 ([1]; Homo sapiens, PMNL, read-out: Effect on 5-LOX product formation in PMNL, IC50): 770 nM; IC50 (sEH [3]): 55 nM

Question: Which results are given for `COc1cc(/C=N/NC(=O)c2ccc(CSc3nc4ccccc4s3)o2)cc(Br)c1O` [Compound I12-8, reference compound]?
Answer: Effect on 5-LOX product formation in PMNL [1]: inactive; Effect on FLAP activity (FLAP): inactive; inhibition at 0.1 µM (sEH [3]): 30%

Question: Which results are given for `COc1cccc(NC(=O)Nc2ccc(CCc3nc4ccccc4[nH]3)cc2)c1` [Compound L1]?
Answer: Effect on 5-LOX product formation in PMNL [1]: inactive; Effect on FLAP activity (FLAP): inactive; inhibition at 0.1 µM (sEH [3]): 30%

Question: With `Cc1cc(OCc2nc3ccccc3s2)ccc1NC(=O)c1cccc(F)c1` [Compound I12-5, reference compound] as the molecule, how does the “Effect … in PMNL” value [1] read?
Answer: inactive

Question: What about the “Effect on FLAP activity” value (FLAP) of the same molecule?
Answer: inactive

Question: What about the “Effect on sEH activity” value (sEH [2]) of the same molecule?
Answer: inactive

Question: For `Cc1cc(OCc2nc3ccccc3o2)ccc1NC(=O)Nc1ccc(Cl)c(Cl)c1` [SE04, N-[4-(2-Benzoxazolylmethoxy)-2-methylphenyl]-N'-(3,4-dichlorophenyl)-urea], which inhibition at 1 µM ([1]; Homo sapiens, PMNL) is on record?
Answer: ~85%

Question: And the inhibition at 1 µM (sEH [3])?
Answer: ~87%

Question: `Cc1cc(OCc2nc3ccccc3s2)ccc1NC(=O)Nc1cccc2ccccc12` [Compound I12-4] was tested. Which inhibition at 1 µM ([1]; Homo sapiens, PMNL) did it give?
Answer: 70%

Question: What about the “Effect on FLAP activity” value (FLAP) of the same molecule?
Answer: active

Question: And the “Effect on sEH activity” value (sEH [2])?
Answer: inactive

Question: With `Cc1cc(OCc2nc3ccccc3s2)ccc1NC(=O)NC1CCCCC1` [Compound I12-2, N-[4-(2-benzothiazolylmethoxy)-2-methylphenyl]-N'-cyclohexyl-urea, reference compound] as the molecule, how does the “Effect … in PMNL” value [1] read?
Answer: did not show an effect; also recorded: inactive

Question: And the “Effect on FLAP activity” value (FLAP)?
Answer: did not show an effect; also recorded: inactive

Question: What about the inhibition at 0.1 µM (sEH [3]) of the same molecule?
Answer: 75%

Question: Which “Effect … in PMNL” value [1] does the source give for `O=C(Nc1ccc(Cl)cc1)Nc1ccc(CCc2nc3ccccc3[nH]2)cc1` [Compound L4] here?
Answer: inactive

Question: What about the “Effect on FLAP activity” value (FLAP) of the same molecule?
Answer: inactive

Question: And the inhibition at 0.1 µM (sEH [3])?
Answer: 78%

Question: Which “Effect … in PMNL” value [1] does the source give for `Cn1c(CCc2ccc(NC(=O)Nc3cccc(Cl)c3)cc2)nc2ccccc21` [Compound L8] here?
Answer: inactive

Question: And the “Effect on FLAP activity” value (FLAP)?
Answer: inactive

Question: What about the inhibition at 0.1 µM (sEH [3]) of the same molecule?
Answer: 65%

Question: With `Cc1cccc(OCC(=O)Nc2ccc(OCc3nc4ccccc4s3)cc2C)c1` [Compound I12-11, reference compound] as the molecule, how does the inhibition at 1 µM ([1]; Homo sapiens, PMNL) read?
Answer: 97%

Question: What about the “Effect on FLAP activity” value (FLAP) of the same molecule?
Answer: active

Question: And the “Effect on sEH activity” value (sEH [2])?
Answer: did not show sEH inhibition; also recorded: inactive

Question: What does the source list for `Cc1cccc(OCc2nc3ccccc3s2)c1C` [Compound I12-13, reference compound]?
Answer: Effect on 5-LOX product formation in PMNL [1]: inactive; Effect on FLAP activity (FLAP): inactive; Effect on sEH activity (sEH [2]): inactive

Question: `COc1ccc(NC(=O)Nc2ccc(CCc3nc4ccccc4[nH]3)cc2)cc1` [Compound L5] was tested. Which “Effect … in PMNL” value [1] did it give?
Answer: inactive

Question: What about the “Effect on FLAP activity” value (FLAP) of the same molecule?
Answer: inactive

Question: What about the inhibition at 0.1 µM (sEH [3]) of the same molecule?
Answer: 50%
